Measured values taken from patent US20050069541A1, “Composition for and treatment of demyelinating diseases and paralysis by administration of remyelinating agents” (priority 2003, published 2005).
“Also recorded” adds a separate entry of the source.

How the values were obtained:
[1] = Receptor-saturating levels of compound maintained in dosed EAE guinea pigs; format: in vivo; settings: 30 mg/kg twice a day, subcutaneously, guinea pig
Protocol: Treatment Regimes. N-[N-(3-pyridinesulfonyl)-L-3,3-dimethyl-4-thiaprolyl]-O-[1-methylpiperazin-4-ylcarbonyl]-L-tyrosine isopropyl ester is a small molecule that binds with high affinity to human and guinea pig 4 integrin (IC50 for inhibition of cell adhesion to VCAM=1 nm). Disease in animals was considered chronic by day 40 post immunization, and thus the treatment period began at this time, and lasted for 10, 20, 30 or 40 days. Animals received either 0.5 mL saline (vehicle for N-[N-(3-pyridinesulfonyl)-L-3,3-dimethyl-4-thiaprolyl]-O-[1-methylpiperazin-4-ylcarbonyl]-L-tyrosine isopropyl ester; n=20) or 30 mg/kg N-[N-(3-pyridinesulfonyl)-L-3,3-dimethyl-4-thiaprolyl]-O-[1-methylpiperazin-4-ylcarbonyl]-L-tyrosine isopropyl ester (n=25) twice a day. With the dosing regimen, receptor saturation levels of N-[N-(3-pyridinesulfonyl)-L-3,3-dimethyl-4-thiaprolyl]-O-[1-methylpiperazin-4-ylcarbonyl]-L-tyrosine isopropyl ester (>10 nm) were maintained at all times. One subgroup of animals received N-[N-(3-pyridinesulfonyl)-L-3,3-dimethyl-4-thiaprolyl]-O-[1-methylpiperazin-4-ylcarbonyl]-L-tyrosine isopropyl ester for 30 days, and then treatment was withdrawn and the animals were maintained for an additional 10 days (n=5). All treatments were administered subcutaneously.
Treatment Regimes. Animals that met both treatment criteria were treated for intervals of 10, 20, 30 or 40 days. […]

IL-2, IL-10, MCP-1 RNA = test: Chronic EAE: quantitative RT-PCR of spinal cord; format: in vivo, guinea pig
Protocol: Quantitative Reverse Transcription-PCR: IL-2, IL-10, MCP-1. RNA was isolated from 30 mg of frozen guinea pig spinal cord using the S.N.A.P.™ (simple nucleic acid preparation) total RNA Isolation Kit (Invitrogen) according to manufacturer's instructions, modified to include a second DNAse treatment step followed by an additional purification over the S.N.A.P. column.
Primer/probe sequences and concentrations for IL-2, IL-10, and MCP-1 are given in Table 7, as well as the standard RNA used for each gene. RT-PCR was carried out in triplicate using the ABI PRISM® 7700 Sequence Detection System. 50 μl reactions contained 10 to 800 ng of total RNA and primers and probes at the concentrations indicated above in reaction buffer consisting of 6.67% glycerol (Amresco); 5.5 mM MgCl; 300 μM DATP, dCTP, dGTP, and dUTP; 100 nM probe; 1.25 unit of AmpliTaq Gold® DNA Polymerase (Applied Biosystems); 1× TaqMan® Buffer A (TaqMan® PCR Core reagents kit, Applied Biosystems), 20 units of RNase Inhibitor (Roche); 1.25 unit of murine leukemia virus (MuLV) Reverse Transcriptase (Applied Biosystems). Reverse-transcription of RNA was carried out at 48° C. for 30 min., followed by a 10 min. denaturing step at 95° C. PCR was carried out by 40 thermo-cycles consisting of 95° C. for 15 seconds followed by 60° C. for 1 minute. Each plate included a standard curve using the standard RNA listed in Table 7 and two additional control samples: 1) a positive control RNA sample used on all plates, 2) a non-template control (NTC).
The correlation coefficients of the standard curves were greater than 0.990 for all data shown. The coefficients of variation for sample triplicates were less than 0.2. Since the RNA used for the standard curve is a heterogeneous mix of RNA containing a constant but unknown amount of the target message, the numbers calculated are relative.

With `CC(C)OC(=O)[C@H](Cc1ccc(OC(=O)N2CCN(C)CC2)cc1)NC(=O)[C@H]1N(S(=O)(=O)c2cccnc2)CSC1(C)C` [N-[N-(3-pyridinesulfonyl)-L-3,3-dimethyl-4-thiaprolyl]-O-[1-methylpiperazin-4-ylcarbonyl]-L-tyrosine isopropyl ester] the “receptor saturation levels maintained at all times” value [1] was over 10 nm, the “cytokine RNA after withdrawal of compound” value (IL-2, IL-10, MCP-1 RNA; 10 days after withdrawal) was “returned to levels comparable to saline-treated animals” and the “IL-2 RNA in spinal cord during treatment” value (IL-2, IL-10, MCP-1 RNA; lumbar spinal cord) was “almost no detectable IL-2 RNA”. The “inflammatory cytokine RNA (IL-2, IL-10, MCP-1) during treatment” value (IL-2, IL-10, MCP-1 RNA; lumbar spinal cord, versus saline) was “significant reduction; also recorded: marked decrease”.
